Test results reported in patent US20220386582A1, “METHOD AND DEVICE TO TRAP ACARIDS” (DOMOBIOS, priority 2015, published 2022).

How the values were obtained:
mites = conditions: washing at low temperature, final concentration of 0.03% benzyl benzoate (Bischoff et al 1998); cited from earlier work
Dermatophagoides farinae = experiment: Mini-mattress trap: attraction capabilities of attracting solutions sprayed on felt; type: in vivo
Experimental: (§1) Rearing: The species studied were Dermatophagoides pteronyssinus and Dermatophagoides farinae, house dust mite common in mattresses in Eurasia. Mites are reared in Petri dishes and fed with human skin flakes (skin and whiskers obtained by cleaning electric […]). All mites were reared together under defined conditions (20° C. and 75% relative humidity). The experiments took place in a room kept at 20° C. and 40% relative humidity. Aim of the experiments: The aim was to test the trap in condition similar to the conditions that will be met by the user of the trap. Materials and methods: The mattresses were built at a smaller scale (15× reduction) than usual mattresses. These mini-mattresses are made in polyurethane and covered by a cover in cotton. They were infested with mites since at least 3 months. The fabric was a felt of 20 mg/cm^2 and is a rectangle of 10 cm×20 cm. It was placed on the mini-mattress. Then the attracting solution was sprayed on the fabric with a spray bottle. The fabric was left in place on the mattress during one hour. During this time, the mites moved in the felt. It is very difficult to count directly the mites hidden in the mattress and in the fabric. Therefore, we used a Berlèse funnel which is a device that is usually used to separate insects from litter. Here, it was used to separate the mites from their mattress or from the fabric. The Berlèse funnel uses a light bulb to heat and dry the mattress, thus driving the mites downwards through a screen and into a collecting jar containing some food and some water. […] They are attracted by a source of moisture and the smell of food. The mattress or blanket were therefore placed in the funnel (FIG. 2). The mites went downwards in the direction of the jar, then in the jar. The harvest of the jar containing the mites took place after one day. Mites had then 24 hours to migrate to the jar collector. As a substantial proportion of the population is immobile (moulting mites), trapping is less efficient than it would be otherwise and estimate of population size that is trapped are likely to be biased. To avoid this bias and make a proper assessment of the populations in infested mattresses, mattresses were carefully brushed with a soft brush at the end of the manipulation meaning that immobile mites and eggs also fall into the funnel. Fabric was carefully brushed too. The Berlèze funnel was rinsed with ethanol. Thus, mites still on the inner wall of the funnel were driven by ethanol in the jar collector. At the end of the experiment, the jar contained: the food used as attracting to mites, a small amount of water also used for attracting, mites, and ethanol. The jar was emptied into a Petri dish and we counted mites under binocular. Counting of mites was made under binocular microscope (magnification 10×). The set-up is illuminated with a cold lamp (KL 1500 LCD, Schott ●). The felt was sprayed with different attracting compositions: a solution of lavandulol, a solution of Tween 60, a combination of lavandulol and Tween 60, a solution of citral, and the attracting solution commercialized under the brand name Acar'up were compared at various dilutions.

[1] = tested on: Dermatophagoides pteronyssinus; experiment: as above; type: in vivo
Experimental: as §1

[2] = tested on: Dermatophagoides pteronyssinus; experiment: Binary choice test in Petri dish, colored felt with attracting agent versus white felt with water; type: in vivo
Experimental: Aim of the experiments: All experiments are tests of binary choice aiming to determine the preference of mites and the place where they prefer to stay (at least for 30 min).
Rearing: The species studied was Dermatophagoides pteronyssinus, a dust mite common in mattresses in Eurasia. Mites are reared in Petri dishes and fed with human skin flakes (skin and whiskers obtained by cleaning electric shavers). All mites were reared together under defined conditions (20° C. and 75% relative humidity). The experiments took place in a room kept at 20° C. and 40% relative humidity.
Materials and methods: A group of mites (20<n<40) was placed in the center of a Petri dish (ø5.5 cm) around which two semi-circles of felt were placed (see FIG. 1). The pieces of felts were 70 mg/cm^2, their thickness was 2 mm. One felt is the control (control felt), for instance impregnated with water; the other felt is the felt with the tested item, for instance the felt that is impregnated with a chemical compound that is tested.
Mites move spontaneously towards one of the two felts.
Observations and counting of mites was made under binocular microscope (magnification 10×). The set-up is illuminated with a cold lamp (KL 1500 LCD, Schott ●), the lighting is symmetric and the light intensity was 50Klux. The experimental conditions were controlled in the room (T° C.: 19-22° C. and RH 40%). […]

[3] = Dilution 10^−6 (* mixture of a lavandulol solution at 10^−6 and a Tween 60 solution at 10^−6)

Compound	mite control in delicate garments (mites)	attraction capabilities, percentage of mites (Dermatophagoides farinae; Dilution 10^−1) [%]	attraction capabilities, percentage of mites (Dermatophagoides farinae; Dilution 10^−3) [%]	attraction capabilities, percentage of mites (Dermatophagoides farinae; [3]) [%]	attraction capabilities, percentage of mites (Dermatophagoides farinae; Dilution 10^−9) [%]	attraction capabilities, percentage of mites (Dermatophagoides farinae; Dilution Undiluted) [%]	attraction capabilities, percentage of mites ([1]; Dilution 10^−3) [%]	attraction capabilities, percentage of mites [1, 3] [%]	attraction capabilities, percentage of mites ([1]; Dilution 10^−9) [%]	attraction capabilities, percentage of mites ([1]; Dilution Undiluted) [%]	Mean (choice of mites for the tested felt) ([2]; blue felt + 1 μl attracting agent (dil 10^−6) versus white felt + 1 μl H2O, 18 trials)	migration of the mites toward the blue felt ([2]; blue felt in combination with citral) [%]
O=C(OCc1ccccc1)c1ccccc1 [benzyl benzoate]	possible to achieve mite control											
CC(C)=CCCC(C)=CC=O [Citral, 3,7-dimethyl-2,6-octadienal, reference compound]		49	36	48	43	5	23	76	56	3	0.84	84
Polyethylene glycol sorbitan monostearate [Tween 60]			54	81	39	7	70	78	57	14		
